Reference: paper PMC2994877, “A Full Pharmacological Analysis of the Three Turkey β-Adrenoceptors and Comparison with the Human β-Adrenoceptors” (PLoS ONE, 2010)
Where two headings read alike, the source gives them in different places. Marks after values point to notes of the source that are not given here.

What was measured:
[1] = target: T1, turkey β3C-adrenoceptor (tβ3C) (Meleagris gallopavo, UniProt A0A803YLI8); assay: 3H-CGP12177 whole cell binding, CHO tβ3C cells
[2] = target: T2, turkey β4C-adrenoceptor (tβ4C) (Meleagris gallopavo, UniProt P43141); assay: cell-based; type: binding
T2 construct: expressed in transfected cells
T2 sequence (P43141 whole entry): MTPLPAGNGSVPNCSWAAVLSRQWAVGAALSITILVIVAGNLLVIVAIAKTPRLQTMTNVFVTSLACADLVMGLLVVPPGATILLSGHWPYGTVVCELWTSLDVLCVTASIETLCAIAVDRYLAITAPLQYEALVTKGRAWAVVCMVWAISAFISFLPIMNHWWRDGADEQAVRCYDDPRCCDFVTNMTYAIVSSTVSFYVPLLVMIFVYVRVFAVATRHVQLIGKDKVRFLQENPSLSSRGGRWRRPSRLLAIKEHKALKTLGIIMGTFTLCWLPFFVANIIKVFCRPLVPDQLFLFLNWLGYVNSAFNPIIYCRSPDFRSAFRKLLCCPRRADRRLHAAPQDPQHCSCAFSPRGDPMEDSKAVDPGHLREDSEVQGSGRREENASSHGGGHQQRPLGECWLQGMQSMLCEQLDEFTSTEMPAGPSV

Human β1-adrenoceptor = target: Human β1-adrenoceptor; set-up: method as in PMID 15655528, PMID 20590599; details: Human β1, given for comparison; ref 25 and 30; cited from earlier work
Human β3-adrenoceptor = details: cited from earlier work
[3] = target: T1, turkey β3C-adrenoceptor (tβ3C); assay: CRE-SPAP production, CHO tβ3C cells; type: cell-based; details: for Emax: read-out: % isop max; for % isop max: CRE-SPAP, % of 10 µM isoprenaline maximum
[4] = target: T2, turkey β4C-adrenoceptor (tβ4C); assay: cell-based; type: cell-based; details: for % isop max: CRE-SPAP, % of 10 µM isoprenaline maximum
parent CHO cells [5] = assay: 3H-cAMP accumulation, parent CHO cells; details: parent CHO cells without transfected receptor
Human β2-adrenoceptor = target: Human β2-adrenoceptor; set-up: method as in PMID 15655528, PMID 20590599; details: Human β2, given for comparison; ref 25 and 30; cited from earlier work
[6] = target: T2, turkey β4C-adrenoceptor (tβ4C); assay: 3H-cAMP accumulation, CHO tβ4C cells; type: cell-based; details: for % isop max: 3H-cAMP, overall response as % of 10 µM isoprenaline; for % site 1: % of response occurring via site 1, tβ4C
[7] = system: parent CHO CRE-SPAP cells; assay: agonist response in parent CHO CRE-SPAP cells; type: cell-based
Excerpt: The second piece of pharmacological evidence for more than one conformation is the concentrations of antagonists required to inhibit the CGP12177-stimulatory response. […] This is similar to observations at the β1-adrenoceptor in rodents and mammals [6]–[7] [9] [11]. […] There was no response to any ligands, including CGP12177 in the parent CHO CRE-SPAP cells and thus the CGP12177 agonist response was not occurring at a different receptor natively expressed in the cells.

[8] = target: T1, turkey β3C-adrenoceptor (tβ3C)
[9] = target: T1, turkey β3C-adrenoceptor (tβ3C); assay: cell-based
parent CHO cells [10] = assay: 3H-CGP12177 binding, parent CHO cells; details: parent CHO cells without transfected receptor
Description: Cells were grown to confluence in white-sided tissue culture treated 96-well view plates. ^3H-CGP12177 whole cell binding was performed as previously described. […] For competition binding, the media was removed from each well, 100 µl of serum-free media containing the competing ligand at twice the final required concentration was added to each well followed immediately by a 100 µl of a fixed concentration of ^3H-CGP12177 (1∶2 dilution in well, final well concentrations of 1.24 nM to 12.10 nM). The cells were incubated for 2 hours at 37°C, 5% CO2 humidified atmosphere. For all plates, the cells were washed twice by the addition and removal of 200 µl 4°C phosphate buffered saline. 100 µl Microscint 20 was added to each well, a white sticky base applied to the underside and a sealant top applied to the top of the plate. The plates were left at room temperature overnight in the dark and the plates counted on a Topcount at 21°C for 2 minutes per well.

[11] = competition with 3H-CGP12177, whole cells, CHO tβ4C, given as log KD, mean ± s.e.m., read-out: Log KD (converted)
[12] = Human β3, given for comparison, ref 25 and 30
[13] = competition with 3H-CGP12177, whole cells, CHO tβ3C, given as log KD, mean ± s.e.m., read-out: Log KD (converted)
[14] = competition with 3H-CGP12177, whole cells, CHO tβ3C, given as log KD, mean ± s.e.m.
[15] = competition with 3H-CGP12177, whole cells, CHO tβ4C, given as log KD, mean ± s.e.m.
[16] = CRE-SPAP production, CHO tβ3C cells, read-out: Log EC50 (converted)
[17] = CRE-SPAP production, CHO tβ4C cells, read-out: Log EC50 (converted)

T1 sequence (A0A803YLI8 entry or part of it): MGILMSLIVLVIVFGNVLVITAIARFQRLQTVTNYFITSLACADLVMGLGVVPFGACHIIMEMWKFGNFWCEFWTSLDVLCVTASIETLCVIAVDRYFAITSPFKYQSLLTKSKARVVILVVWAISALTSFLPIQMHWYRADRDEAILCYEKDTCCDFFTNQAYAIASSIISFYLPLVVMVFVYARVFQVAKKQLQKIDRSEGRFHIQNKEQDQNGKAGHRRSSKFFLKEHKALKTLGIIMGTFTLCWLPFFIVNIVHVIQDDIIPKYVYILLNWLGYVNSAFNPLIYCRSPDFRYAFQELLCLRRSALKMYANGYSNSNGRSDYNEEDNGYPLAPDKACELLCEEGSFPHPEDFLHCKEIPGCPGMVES

Molecule	Kd [1]	Kd [2, 11]	Log KD (Human β1-adrenoceptor)	Log KD (Human β3-adrenoceptor; [12])	% isop max ([4]; CHO tβ4C cells)	Log KD (Human β2-adrenoceptor)	further results
CC(CCc1ccc(O)cc1)NCC(O)c1ccc(O)cc1 (stereo not shown) [Ractopamine]	224 nM	269 nM	−6.97	−5.82	–	–	–
Cc1ccc(Cl)c(OCC(O)CNC(C)(C)C)c1 (stereo not shown) [Bupranolol]	–	6.61 nM	−8.51	−7.04	–	–	Kd [1, 13]: 0.851 nM
C[C@H](Cc1ccc2c(c1)OC(C(=O)[O-])(C(=O)[O-])O2)NC[C@H](O)c1cccc(Cl)c1.[Na+].[Na+] [CL316243]	–	–	>−3	−5.11	–	–	Log KD [1, 14]: >−4; Log KD [2, 15]: >−4
CC(C)(C)NCC(O)c1ccc(O)c(CO)c1 (stereo not shown) [Salbutamol]	724 nM	4370 nM	–	–	99.9±2.3%	–	EC50 [3, 16]: 3.55 nM; Emax [3]: 102 ± 3.1%; EC50 [4, 17]: 42.7 nM
C=C[C@@]1(C)CC(=O)[C@]2(O)[C@@]3(C)[C@@H](O)CCC(C)(C)[C@@H]3[C@H](O)[C@H](OC(C)=O)[C@@]2(C)O1 [forskolin]	–	–	–	–	–	–	3H-cAMP accumulation response (parent CHO cells [5]): 21.5±2.2 fold over basal
CC(C)(C)NCC(O)c1cc(Cl)c(N)c(Cl)c1 (stereo not shown) [Clenbuterol]	41.7 nM	–	−6.62	−5.35	97.2±1.9%	−7.90	Kd [2]: 363 nM; EC50 [3]: 0.525 nM; Emax [3]: 97.8 ± 4.4%; EC50 [4]: 40.7 nM
CC(C)NCC(O)c1ccc(O)c(O)c1 (stereo not shown) [Isoprenaline]	316 nM	–	–	−5.52	100%	–	EC50 [3]: 26.9 nM; % isop max ([3]; CHO tβ3C cells): 100%; CRE-SPAP gene transcription response ([4]; tβ4C): 2.47±0.10 fold over basal
CC(C)(C)NCC(O)COc1cccc2[nH]c(=O)[nH]c12 (stereo not shown) [CGP12177]	–	–	–	–	53.4±2.2%	–	% isop max ([6]; tβ4C): 17.4±0.7%; % site 1 [6]: 41.3±7.2%; agonist response [7]: no response
CNC[C@H](O)c1ccc(O)c(O)c1 [Adrenaline]	1550 nM	1700 nM	−5.15	−4.70	99.6±2.7%	−6.13	EC50 [3]: 63.1 nM; Emax [3]: 106 ± 2.7%; EC50 [4, 17]: 191 nM
OCc1cc(C(O)CNCCCCCCOCCCCc2ccccc2)ccc1O (stereo not shown) [Salmeterol]	3.16 nM	–	–	−6.33	102.5±2.8%	–	Kd [2]: 81.3 nM; EC50 [3]: 0.0372 nM; Emax [3]: 96 ± 5.7%; EC50 [4]: 3.98 nM
CC(C)(Cc1c[nH]c2ccccc12)NCC(O)COc1ccccc1C#N (stereo not shown) [Bucindolol]	0.191 nM	0.389 nM	−9.31	−8.04	–	−9.99	–
CC(C)(Cc1ccccc1)NCC(O)c1ccc(O)c(NS(C)(=O)=O)c1 (stereo not shown) [zinterol]	24 nM	158 nM	−5.96	−6.27	–	−8.04	–
CC(C)NCC(O)c1ccc2ccccc2c1 (stereo not shown) [Pronethalol]	–	–	−6.44	−5.89	–	–	Kd [1, 13]: 102 nM; Kd [2]: 87.1 nM
Br.COC(=O)COc1ccc(CC(C)NC[C@H](O)c2cccc(Cl)c2)cc1 (stereo partly shown) [BRL35135A]	–	–	−6.08	−6.73	–	−7.38	Log KD [1, 14]: −7.42±0.06; Log KD [2, 15]: −6.39±0.03
CC(C)(C)NC[C@H](O)COc1cccc2[nH]c(C#N)cc12 [S-Cyanopindolol]	0.00427 nM	–	–	−8.36	–	–	shape of agonist concentration response ([6]; 3H-cAMP accumulation, tβ4C): two component response; % isop max ([6]; tβ4C): 16.4±2.7%; % site 1 [6]: 44.4±2.0%; shape of agonist concentration response ([8]; 3H-cAMP accumulation, tβ3C): one-component response; Log EC502 ([8]; 3H-cAMP accumulation, tβ3C, one-component response (same value as EC501)): −10.60±0.13; % site 1 ([8]; % of response occurring via site 1, tβ3C): 100%; EC50 [9]: 0.0251 nM; Emax ([9]; read-out: % isop max): 4.6 ± 0.7%
C[C@H](Cc1ccc(OCC(=O)O)cc1)NC[C@H](O)c1cccc(Cl)c1 [BRL37344]	–	–	−5.19	−6.45	97.1±3.0%	−6.51	Log KD [1, 14]: −6.28±0.06; Log KD [2, 15]: −5.89±0.10; Log EC50 ([3]; CRE-SPAP production, CHO tβ3C cells): −7.67±0.04; % isop max ([3]; CHO tβ3C cells): 88.5±4.2%; Log EC50 ([4]; CRE-SPAP production, CHO tβ4C cells): −7.15±0.07
^3H-CGP12177	–	–	–	–	–	–	Kd ([1]; read-out: KD of 3H-CGP12177, saturation binding, stable CHO tβ3C cell line): 0.29 ± 0.02 nM; Kd ([2]; read-out: KD of 3H-CGP12177, saturation binding, stable CHO tβ4C cell line): 0.58 ± 0.06 nM; specific binding of 3H-CGP12177 (parent CHO cells [10]): no specific binding
COc1ccc(CC(C)NCC(O)c2ccc(O)c(NC=O)c2)cc1 (stereo not shown) [Formoterol]	11 nM	–	–	−5.82	–	–	Kd [2]: 20 nM; EC50 [3]: 0.0447 nM; EC50 [4]: 0.166 nM
NC[C@H](O)c1ccc(O)c(O)c1 [Noradrenaline]	11500 nM	501 nM	−5.74	−5.53	102.3±2.5%	−5.41	EC50 [3]: 417 nM; Emax [3]: 102 ± 3%; EC50 [4, 17]: 81.3 nM
CC(CCc1ccc(O)cc1)NCCc1ccc(O)c(O)c1 (stereo not shown) [Dobutamine]	–	1000 nM	−5.23	−5.09	110.4±2.4%	−5.84	Kd [1, 13]: 2690 nM; EC50 [3, 16]: 427 nM; Emax [3]: 101 ± 3.7%; EC50 [4, 17]: 158 nM
CCCCCCNC(=O)Nc1ccc(S(=O)(=O)Nc2ccc(CCNC[C@H](O)COc3ccc(O)cc3)cc2)cc1 [L755507]	–	–	−6.23	–	–	−6.83	Log KD [1, 14]: −6.56±0.06; Log KD [2, 15]: −7.63±0.11; Log KD (Human β3-adrenoceptor; Human β3, binding to site 1): −8.60 ^*
CC(C)NCC(O)c1cc(O)cc(O)c1 (stereo not shown) [Metaproterenol]	–	7410 nM	−4.71	−4.06	–	−5.30	Kd [1, 13]: 4170 nM
CC(Cc1ccc(O)cc1)NCC(O)c1cc(O)cc(O)c1 (stereo not shown) [Fenoterol]	204 nM	–	−5.04	−5.39	–	−7.03	Kd [2]: 603 nM; EC50 [3]: 0.832 nM; EC50 [4]: 8.51 nM
O=C(O)Cc1ccc(OCCNC[C@H](O)c2ccccc2)cc1 [ZD2079]	–	> 100000 nM	−4.21	−4.59	–	>−4	Kd [1, 13]: > 100000 nM
COc1ccc(OC)c(C(O)C(C)NC(C)(C)C)c1 (stereo not shown) [Butoxamine]	1020 nM	12600 nM	−4.85	>−4	–	−6.23	–
CC(C)(C)NCC(O)COc1cccc2c1CC(O)C(O)C2 (stereo not shown) [Nadolol]	–	18.2 nM	−7.23	−6.18	–	−8.60	Kd [1, 13]: 11.2 nM
CC(C)NCC(O)c1ccc(N)c(C#N)c1 (stereo not shown) [Cimaterol]	–	–	–	−5.28	98.2±2.3%	−7.26	Emax [3]: 103 ± 2.2%
